Measurements: ChEMBL document CHEMBL4000212, “New furoxan derivatives for the treatment of ocular hypertension” (Bioorg Med Chem Lett, 2017)

Tests used:
Oryctolagus cuniculus [1] = assay: Antiglaucoma activity in hypertonic saline-induced New Zealand white rabbit transient ocular hypertensive model assessed as IOP lowering efficacy at 30 uL administered topically immediately after hypertonic saline injection measured at 60 mins post dose; assay type: functional
Oryctolagus cuniculus [2] = assay: Antiglaucoma activity in hypertonic saline-induced New Zealand white rabbit transient ocular hypertensive model assessed as IOP lowering efficacy at 30 uL administered topically immediately after hypertonic saline injection measured at 120 mins post dose; assay type: functional
[3] = Solubility in pH 6 phosphate buffer /5% cremophor EL/0.3% DMSO/0.2 mg/ml bac solution at 10 mg incubated in magnetic stirrer for 1 hr; assay type: physicochemical; conditions: pH 6, 1 h
[4] = n-Octanol-water distribution coefficient, log D of the compound at pH 7.4 after 20 mins by UV-spectrometric based shake-flask method; assay type: physicochemical
[5] = Ionization constant of the compound assessed as ionization level by potentiometric titration; assay type: physicochemical
[6] = Induction of NO release assessed as nitrite formation at 0.1 mM in phosphate buffer saline at pH 7.4 in absence of L-cysteine measured after 1 hr by Griess assay
Oryctolagus cuniculus [7] = assay: Antiglaucoma activity in hypertonic saline-induced New Zealand white rabbit transient ocular hypertensive model assessed as IOP lowering efficacy at 30 uL administered topically immediately after hypertonic saline injection measured at 240 mins post dose; assay type: functional
[8] = Solubility of the compound in water at 5 mg incubated in magnetic stirrer for 1 hr; assay type: physicochemical
[9] = Induction of NO release assessed as nitrite formation at 0.1 mM in phosphate buffer saline at pH 7.4 in presence of 0.5 mM L-cysteine measured after 1 hr by Griess assay
[10] = Ionization constant, pKa of the compound by potentiometric titration; assay type: physicochemical
[11] = Induction of NO release assessed as nitrite formation at 0.1 mM in phosphate buffer saline at pH 7.4 in presence of 5 mM L-cysteine measured after 1 hr by Griess assay
Oryctolagus cuniculus [12] = assay: Antiglaucoma activity in hypertonic saline-induced New Zealand white rabbit transient ocular hypertensive model assessed as IOP lowering efficacy at 0.5% administered topically immediately after hypertonic saline injection measured at 60 mins post dose; assay type: functional
Oryctolagus cuniculus [13] = assay: Antiglaucoma activity in hypertonic saline-induced New Zealand white rabbit transient ocular hypertensive model assessed as IOP lowering efficacy at 0.5% administered topically immediately after hypertonic saline injection measured at 120 mins post dose; assay type: functional
Oryctolagus cuniculus [14] = assay: Antiglaucoma activity in hypertonic saline-induced New Zealand white rabbit transient ocular hypertensive model assessed as IOP lowering efficacy at 30 uL administered topically immediately after hypertonic saline injection measured at 30 mins post dose; assay type: functional

Row | SMILES | solubility [3] | logD at 20 min [4] | Activity [5] [%] | solubility at 1 h [8] [mg/mL] | pKa [10] | Activity (Oryctolagus cuniculus [1]) [mmHg] | Activity (Oryctolagus cuniculus [2]) [mmHg] | Activity [6] [%] | Activity (Oryctolagus cuniculus [7]) [mmHg] | Activity [9] [%] | Activity [11] [%] | Activity (Oryctolagus cuniculus [12]) [mmHg] | Activity (Oryctolagus cuniculus [13]) [mmHg] | Activity (Oryctolagus cuniculus [14]) [mmHg]
1 | CCOC(=O)/N=c1\c[n+](N2CCOCC2)[n-]o1 |  |  |  |  |  | -7.83 | -8.17 |  |  |  |  |  |  | 
2 | CN(C)CCCN(C)Cc1no[n+]([O-])c1C#N.O=C(O)C(F)(F)F | Soluble | -0.73 | 98.8 | > 30 | 3.34 to 9.3 |  |  | 0 |  | 13.5 | 40.1 |  |  | 
3 | CC(C)(C)NC[C@H](O)COc1nsnc1N1CCOCC1 [TIMOLOL] |  |  |  |  |  |  |  |  |  |  |  | -7.17 | -7.33 | 
4 | N#Cc1c(CN2CCNCC2)no[n+]1[O-].O=C(O)C(F)(F)F | Soluble | -1.32 | 96.3 | > 30 | 2 to 8.81 | -11.5 | -10.6 | 0 |  | 15.4 |  |  |  | 
5 | Cc1c(OCCN)no[n+]1[O-].O=C(O)C(=O)O | Soluble | -1.54 | 95.2 | > 30 | 8.7 | -11.9 | -8.8 | 0 |  | 0 | < 1 |  |  | 
6 | CN(C)Cc1no[n+]([O-])c1C(N)=O | Soluble | -0.03 | 12.9 | > 30 | 6.57 | -12 | -8.6 | 0 |  | 1.4 | 12.8 |  |  | 
7 | NC(=O)c1c(CO)no[n+]1[O-] | Soluble | -1.48 |  | > 30 |  | -4.8 | -2.9 | 0 |  | 1.8 | 12 |  |  | 

Further lines, with some results ahead:

Row | solubility [3] | logD at 20 min [4] | Activity [5] [%] | solubility at 1 h [8] [mg/mL] | pKa [10] | SMILES | Activity (Oryctolagus cuniculus [1]) [mmHg] | Activity (Oryctolagus cuniculus [2]) [mmHg] | Activity [6] [%] | Activity (Oryctolagus cuniculus [7]) [mmHg] | Activity [9] [%] | Activity [11] [%] | Activity (Oryctolagus cuniculus [12]) [mmHg] | Activity (Oryctolagus cuniculus [13]) [mmHg] | Activity (Oryctolagus cuniculus [14]) [mmHg]
8 | Soluble | 0.87 | 2.6 | > 30 | 5.82 | CN(C)Cc1no[n+]([O-])c1C#N.O=C(O)C(=O)O | -14.4 | -11.2 | 0 | -8.6 | 16.1 | 43.9 |  |  | 
9 | Insoluble | 1.4 | 14.2 | < 0.5 | 6.62 | CC(C)N(Cc1no[n+]([O-])c1C(N)=O)C(C)C |  |  | 0 |  | 1.2 | 11.6 |  |  | 
10 | Soluble | -0.28 | 76 | > 30 | 7.9 | Cc1c(OCCN(C)C)no[n+]1[O-].O=C(O)C(=O)O | -14 | -9 | 0 |  | 0 | < 1 |  |  | 
11 | Soluble | 1.31 | 2.4 | > 30 | 5.79 | CCN(C)Cc1no[n+]([O-])c1C#N.O=C(O)C(=O)O |  |  | 0 |  | 17.5 | 40.9 |  |  | 
12 | Soluble | 2.35 | 0.9 | > 30 | 5.35 | CC(C)N(Cc1no[n+]([O-])c1C#N)C(C)C.CS(=O)(=O)O |  |  | 0 |  | 16.5 | 41.9 |  |  | 
13 | Insoluble | 2.31 | < 0.1 | < 0.5 | 4.01 | N#Cc1c(CN2CCC(Br)CC2)no[n+]1[O-].O=C(O)C(=O)O |  |  | 0 |  | 15.9 | 40.5 |  |  | 
14 | Soluble | 2.74 | 1.1 | 2 | 5.46 | CCCN(CCC)Cc1no[n+]([O-])c1C#N.O=C(O)C(=O)O | -5.3 | -2.8 | 0 |  | 18.1 | 42.3 |  |  | -8.5
15 | Soluble | 1.98 | 2.5 | > 30 | 5.8 | CCN(CC)Cc1no[n+]([O-])c1C#N.O=C(O)C(=O)O | -8.9 | -4.8 | 0 |  | 15.5 | 41.3 |  |  | 
16 | Insoluble | 2.62 | 1.5 | < 0.5 | 5.58 | CCN(Cc1ccccc1)Cc1no[n+]([O-])c1C#N.O=C(O)C(=O)O |  |  | 0 |  | 16.4 | 41.7 |  |  | 
17 | Insoluble | 0.97 | 0.9 | < 0.5 | 2 to 5.38 | N#Cc1c(CN2CCN(c3ncccn3)CC2)no[n+]1[O-] |  |  | 0 |  | 14.4 | 41.5 |  |  | 
